Experimental findings from patent publication US8163737B2 (Vertex Pharmaceuticals Incorporated, priority 2006, dated 2012) are described below.

Structures are written as SMILES.

The target in experiment [1] is T1, CGRP receptor (SK-N-MC membrane) (Homo sapiens, UniProt O60894+Q16602).
T1 construct: Purified SK-N-MC membrane was purchased from Perkin Elmer; purchased Perkin Elmer; host or cells: SK-N-MC membrane
The experiment in a line: I125-CGRP binding displacement assay on purified SK-N-MC membrane. In short, it runs like this:
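Displacement of I125-CGRP binding was measured by filtration and scintillation counting after 2 h room-temperature incubation with compound and SK-N-MC membranes (buffer pH 7.4, MgCl2, BSA, Tween). Percent displacement calculated against total binding and 1 uM cold CGRP nonspecific controls, then curve-fitted.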

Experiment [2] concerns the target endogenous CGRP receptor (Homo sapiens, UniProt O60894+Q16602). The experiment can be described thus: CGRP functional antagonism using SK-N-MC-BLA (4C10), β-lactamase transcriptional reporter assay. The format is cell-based. The settings on record: SK-N-MC (4C10) cells, inhibition of β-lactamase expression in the presence of 200 pM CGRP. (A reporter such as luciferase makes a cellular process visible.)

A word on the Ki: it is a measure of affinity in units of concentration, obtained from inhibition or displacement. The term IC50 denotes the midpoint of a concentration-inhibition curve.

endogenous CGRP receptor, sequence (Q16602 23-461): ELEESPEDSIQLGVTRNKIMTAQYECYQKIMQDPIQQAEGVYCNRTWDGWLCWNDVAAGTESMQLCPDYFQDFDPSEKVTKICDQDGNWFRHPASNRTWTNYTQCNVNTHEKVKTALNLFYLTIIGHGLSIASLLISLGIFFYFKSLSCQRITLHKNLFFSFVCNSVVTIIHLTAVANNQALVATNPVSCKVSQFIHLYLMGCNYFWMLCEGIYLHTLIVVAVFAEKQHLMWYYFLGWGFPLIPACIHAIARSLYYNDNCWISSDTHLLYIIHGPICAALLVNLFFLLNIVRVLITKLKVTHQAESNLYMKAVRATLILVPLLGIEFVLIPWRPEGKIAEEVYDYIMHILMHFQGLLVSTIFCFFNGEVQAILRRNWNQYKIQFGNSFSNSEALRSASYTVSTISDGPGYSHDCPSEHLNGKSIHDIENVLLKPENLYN
endogenous CGRP receptor, sequence (O60894 27-148): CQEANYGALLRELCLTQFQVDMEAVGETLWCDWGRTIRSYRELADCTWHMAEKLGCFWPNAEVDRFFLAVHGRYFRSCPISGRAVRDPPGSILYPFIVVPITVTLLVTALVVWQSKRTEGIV
T1 sequence (Q16602 23-461): as the sequence (Q16602 23-461) above
T1 sequence (O60894 27-148): as the sequence (O60894 27-148) above

In experiment [1], `CC(C)(C)CCN1C(=O)[C@H](CC(=O)N2CCC(n3c(=O)[nH]c4ncccc43)CC2)SC1c1ccccc1C1CCNCC1` (some centres unmarked) [Compound 528] yielded a Ki below 1 µM. Besides, in experiment [2], the IC50 is below 1 µM.
Consider `CC(C)OCCN1C(=O)[C@H](CC(=O)N2CCC(N3CCc4ccccc4NC3=O)CC2)SC1c1cccc(F)c1N1CCN(C(C)(C)C)CC1` (some centres unmarked) [Compound 529], for which the Ki in experiment [1] is below 1 µM. The IC50 in experiment [2] is below 1 µM.
Turning to `CC(C)OCCN1C(=O)[C@H](CC(=O)N2CCC(n3c(=O)[nH]c4ncccc43)CC2)SC1c1cccc(F)c1N1CCN(C(C)(C)C)CC1` (some centres unmarked) [Compound 530], the Ki in experiment [1] was below 1 µM. Besides, the IC50 in experiment [2] was below 1 µM.
`CC(C)OCCN1C(=O)[C@H](CC(=O)N2CCC(n3c(=O)[nH]c4ncccc43)CC2)SC1c1cccc(F)c1N1CCN(C(C)(C)C)CC1` (some centres unmarked) [Compound 531] registered a Ki in experiment [1] below 1 µM. In addition, the IC50 in experiment [2] was below 1 µM.
With `CC(C)(C)CCN1C(=O)[C@H](CC(=O)N2CCC(n3c(=O)[nH]c4ncccc43)CC2)SC1c1cccc(F)c1NCCN1CCCCC1` (stereo partly drawn) [Compound 532, 1-(1-(2-((5S)-2-(2-(2-(Piperidin-1-yl)ethylamino)-3-fluorophenyl)-3-(3,3-dimethylbutyl)-4-oxothiazolidin-5-yl)acetyl)piperidin-4-yl)-1H-imidazo[4,5-b]pyridin-2(3H)-one], the Ki in experiment [1] was below 1 µM. The IC50 in experiment [2] is below 1 µM.
As for `COCCN1C(=O)[C@H](CC(=O)N2CCC(N3CCc4ccccc4NC3=O)CC2)SC1c1cccc(F)c1N1CCN(C(C)(C)C)CC1` (some centres unmarked) [Compound 533], the Ki in experiment [1] is below 1 µM. Also, the IC50 in experiment [2] was below 1 µM.
Turning to `COCCN1C(=O)[C@H](CC(=O)N2CCC(N3CCc4ccccc4NC3=O)CC2)SC1c1cccc(F)c1N1CCN(C(C)(C)C)CC1` (some centres unmarked) [Compound 534], the Ki in experiment [1] is below 1 µM. Besides, the IC50 in experiment [2] is below 1 µM.
In turn, `COCCN1C(=O)[C@H](CC(=O)N2CCC(n3c(=O)[nH]c4ncccc43)CC2)SC1c1cccc(F)c1N1CCN(C(C)(C)C)CC1` (some centres unmarked) [Compound 535] gave a Ki in experiment [1] below 1 µM. Further, the IC50 in experiment [2] is below 1 µM.
Regarding `CCCN1C(=O)[C@H](CC(=O)N2CCC(n3c(=O)[nH]c4ncccc43)CC2)SC1c1cccc(F)c1N1CCN(C(C)(C)C)CC1` (some centres unmarked) [Compound 538], in experiment [1], the Ki was below 1 µM. Besides, the IC50 in experiment [2] was below 1 µM.
In experiment [1], `CC(C)(C)N1CCN(c2c(F)cccc2C2S[C@@H](CC(=O)N3CCC(N4CCc5ccccc5NC4=O)CC3)C(=O)N2Cc2ccccc2)CC1` (some centres unmarked) [Compound 539] displayed a Ki below 1 µM. Also, the IC50 in experiment [2] was below 1 µM.
On to `CC(C)(C)N1CCN(c2c(F)cccc2C2S[C@@H](CC(=O)N3CCC(n4c(=O)[nH]c5ncccc54)CC3)C(=O)N2Cc2ccccc2)CC1` (some centres unmarked) [Compound 540], for which the Ki in experiment [1] was below 1 µM. Moreover, the IC50 in experiment [2] is below 1 µM.
Turning to `CC(C)CN1CCN(c2ccccc2[C@H]2S[C@@H](CC(=O)N3CCC(N4CCc5ccccc5NC4=O)CC3)C(=O)N2CCC(C)(C)C)C(=O)C1` [Compound 541], the Ki in experiment [1] is below 1 µM. Moreover, the IC50 in experiment [2] is below 1 µM.
In the case of `CC(C)(C)CCN1C(=O)[C@H](CC(=O)N2CCC(N3CCc4ccccc4NC3=O)CC2)SC1c1cccc(F)c1N1CCN(C2CCC2)CC1` (some centres unmarked) [Compound 542], in experiment [1], the Ki is below 1 µM. The IC50 in experiment [2] is below 1 µM.
On to `CC(C)(C)CCN1C(=O)[C@H](CC(=O)N2CCC(N3CCc4ccccc4NC3=O)CC2)SC1c1cccc(F)c1N1CCN(C2CCC2)CC1` (some centres unmarked) [Compound 543], for which the Ki in experiment [1] is below 1 µM. For the same compound, the IC50 in experiment [2] is below 1 µM.
Take `CC(C)CCN1C(=O)[C@H](CC(=O)N2CCC(N3CCc4ccccc4NC3=O)CC2)SC1c1cccc(F)c1N1CCN(C(C)(C)C)CC1` (some centres unmarked) [Compound 544]: the Ki in experiment [1] is below 1 µM. In addition, the IC50 in experiment [2] was below 1 µM.
For the compound `CC(C)CCN1C(=O)[C@H](CC(=O)N2CCC(N3CCc4ccccc4NC3=O)CC2)SC1c1cccc(F)c1N1CCN(C(C)(C)C)CC1` (some centres unmarked) [Compound 545], the Ki in experiment [1] was below 1 µM. Also, the IC50 in experiment [2] was below 1 µM.
